From publication PMC11812085, “Structural Dynamics of the Ubiquitin Specific Protease USP30 in Complex with a Cyanopyrrolidine-Containing Covalent Inhibitor” (Journal of Proteome Research, 2025)

Molecular target: T1, USP30 (ubiquitin specific protease 30) (Homo sapiens, UniProt Q70CQ3, DEL179-216/DEL288-305)
T1 construct: residues 64-502Δ179-216 and 288-305
T1 sequence (Q70CQ3 with tags, fused parts or gaps DEL179-216/DEL288-305): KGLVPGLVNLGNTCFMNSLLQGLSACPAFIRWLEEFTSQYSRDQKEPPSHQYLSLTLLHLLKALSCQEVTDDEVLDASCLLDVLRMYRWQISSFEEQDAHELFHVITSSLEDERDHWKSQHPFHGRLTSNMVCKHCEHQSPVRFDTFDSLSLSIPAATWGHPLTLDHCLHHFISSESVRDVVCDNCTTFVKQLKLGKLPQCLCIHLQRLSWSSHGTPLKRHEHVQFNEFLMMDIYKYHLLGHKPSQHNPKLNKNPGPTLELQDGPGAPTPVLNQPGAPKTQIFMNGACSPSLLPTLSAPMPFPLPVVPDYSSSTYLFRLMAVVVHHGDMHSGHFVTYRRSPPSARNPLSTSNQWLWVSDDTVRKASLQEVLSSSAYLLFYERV
Experiment: RapidFire MS of covalent complex and HDX-MS on recombinant USP30; KI from kinact/KI kinetics with Ub-rhodamine (IC50 […] after […] min preincubation; […] in SH-SY5Y lysate ABPP)
Assay type: biochemical

KI (inactivation): ~350 nM
SMILES: C[C@@H]1C[C@@H](NC(=O)c2ncc(-c3cccc(C#N)c3)o2)CN1C#N [USP30-I-1]
